Laboratory results as given in patent US10968193B2, “Antidiabetic bicyclic compounds” (Merck Sharp & Dohme Corp., priority 2014, dated 2021).

target: T1, human GPR40 (Homo sapiens, UniProt O14842); test: Inositol Phosphate Turnover (IP1) Assay 3; assay type: cell-based; settings: HEK cells stably expressing human GPR40
T1 construct: expressed in transfected cells; host or cells: HEK cells stably expressing the aequorin reporter
Method: Human and mouse GPR40 stable cell-lines were generated in CHO cells stably expressing NFAT BLA (Beta-lactamase). A human GPR40 stable cell-line was generated in HEK cells stably expressing the aequorin expressing reporter. The expression plasmids were transfected using lipofectamine (Life Technologies) following manufacturer's instructions. Stable cell-lines were generated following drug selection.
Inositol Phosphate Turnover (IP1) Assay 3:
The assay was performed in 384-well format. HEK cells stably expressing human GPR40 were plated at 7500 cells per well in growth medium (DMEM/10% fetal calf serum). Cell plates were then incubated 16 hours at 37 degrees in a 5% CO2 incubator.
Measurement of Inositol Phosphate Turnover (IP) was performed using the CisBio IP-One kit (Part number 62IPAPEB). After the 16 hour incubation, the growth media was removed by centrifugation using the BlueWasher (AusWasher GUI Ver. v1.0.1.8) Protocol #21—“Light Dry” and 10 ul of stimulation buffer (prepared as described in the kit) was added to each well. In a separate plate, compounds were diluted in DMSO (200-fold over the final concentration in the assay well) and 50 nl was acoustically transferred to the appropriate well in the assay cell plate. The plates were then incubated for 60 minutes at 37 degrees in a 5% CO2 incubator. 10 ul of detection buffer (also prepared as described in the IP-One kit) was added to each well and the plates were incubated at rt for 60 minutes in the dark. The plates were then read in a Perkin Elmer EnVision or equivalent reader able to measure FRET. Fluorescent ratio of emission at 665 and 620 nm was then converted to IP1 concentration by back calculating from an IP1 standard curve prepared at the time of the assay. Data is normalized to % activity using a reference compound and EC50s determined using a standard 4-parameter fit.

T1 sequence (O14842 whole entry): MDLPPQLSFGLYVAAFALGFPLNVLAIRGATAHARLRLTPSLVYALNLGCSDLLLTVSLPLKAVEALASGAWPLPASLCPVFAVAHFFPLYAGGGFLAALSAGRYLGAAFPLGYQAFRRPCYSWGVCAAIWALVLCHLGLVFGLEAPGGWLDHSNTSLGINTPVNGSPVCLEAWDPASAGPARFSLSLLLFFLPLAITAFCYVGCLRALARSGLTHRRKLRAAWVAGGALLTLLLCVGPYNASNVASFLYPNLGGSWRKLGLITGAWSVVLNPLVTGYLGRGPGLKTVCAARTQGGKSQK

**Q.** COc1cc(-c2ccc(C3CCc4ccc([C@H](C5CC5)[C@H](C)C(=O)O)cc4O3)c(CN3CCCC3(C)C)c2)ccn1 (single isomer, unassigned) [Example 111a] was tested. Which EC50 did it give?
**A.** Its EC50 is 3.2 nM.

**Q.** COc1ccc(F)c(-c2ccc(C3CCc4ccc([C@H](C5CC5)[C@H](C)C(=O)O)cc4O3)cc2CN2CCCCC23CC3)n1 (single isomer, unassigned) [Example 189] was tested. Which EC50 did it give?
**A.** The EC50 was 5.1 nM.

**Q.** How did the EC50 turn out when COc1cc(-c2ccc(C3CCc4ccc([C@H](C5CC5)[C@H](C)C(=O)O)cc4O3)cc2CN2CCCC2)ccn1 (stereo partly drawn) [Example 175, (2S, 3R)-3-cyclopropyl-3-(2-(4-(2-methoxypyridin-4-yl)-3-(pyrrolidin-1-ylmethyl)phenyl)-chroman-7-yl)-2-methylpropanoic acid] was run?
**A.** Its EC50 is 53 nM.

**Q.** How did the EC50 turn out when COc1cc(-c2ccc(C3CCc4ccc([C@H](C5CC5)[C@H](C)C(=O)O)cc4O3)c(CN3CCCC[C@H]3C)c2)ccn1 (single isomer, unassigned) [Example 120b] was run?
**A.** Its EC50 is 41 nM.

**Q.** With COc1cc(-c2ccc(C3CCc4ccc([C@H](C5CC5)[C@H](C)C(=O)O)cc4O3)c(CN3CCC[C@@H]3C)c2)c(F)cn1 (single isomer, unassigned) [Example 129b] as the molecule, how does the EC50 read?
**A.** Its EC50 is 36 nM.

**Q.** With COc1cc(-c2ccc(C3CCc4ccc([C@H](C5CC5)[C@H](C)C(=O)O)cc4O3)c(F)c2CN2CCCC2)c(F)cn1 (single isomer, unassigned) [Example 219] as the molecule, how does the EC50 read?
**A.** The EC50 was 2 nM.

**Q.** How did the EC50 turn out when CCOc1cc(-c2ccc(C3CCc4ccc([C@H](C5CC5)[C@H](C)C(=O)O)cc4O3)cc2CN2CCCC2)c(F)cn1 (single isomer, unassigned) [Example 173] was run?
**A.** The EC50 was 50 nM.

**Q.** With COc1cc(-c2ccc(C3CCc4ccc([C@H](C5CC5)[C@H](C)C(=O)O)cc4O3)cc2CN2CCCC3(CC3)C2)ccn1 (stereo partly drawn) [Example 277] as the molecule, how does the EC50 read?
**A.** Its EC50 is 1.9 nM.

**Q.** How did the EC50 turn out when COc1cc(-c2ccc(C3CCc4ccc([C@H](C5CC5)[C@H](C)C(=O)O)c(F)c4O3)cc2CN2CCC[C@@H]2C)c(F)cn1 (single isomer, unassigned) [Example 212] was run?
**A.** Its EC50 is 3.1 nM.

**Q.** CCOc1cc(-c2ccc(C3CCc4ccc([C@H](C5CC5)[C@H](C)C(=O)O)cc4O3)c(CN(C)C(C)(C)C)c2)c(F)cn1 (mixture of isomers) [Example 132] was tested. Which EC50 did it give?
**A.** The EC50 was 4.8 nM.

**Q.** For COc1cc(-c2ccc(C3CCc4ccc([C@H](C5CCC5)[C@H](C)C(=O)O)cc4O3)cc2CN2CCCC2C)c(F)cn1 (stereo partly drawn) [Example 102], which EC50 is on record?
**A.** Its EC50 is 0.07 nM.

**Q.** How did the EC50 turn out when CCN(CC)Cc1cc(C2CCc3ccc([C@H](C4CC4)[C@H](C)C(=O)O)cc3O2)ccc1-c1ccnc(OC)c1 (single isomer, unassigned) [Example 221] was run?
**A.** The EC50 was 14 nM.

**Q.** COc1cc(-c2ccc(C3CCc4ccc([C@H](C5CC5)[C@H](C)C(=O)O)cc4O3)cc2CN(C)C(C)(C)C)c(C#N)cn1 (single isomer, unassigned) [Example 193] was tested. Which EC50 did it give?
**A.** The EC50 was 1.5 nM.

**Q.** Which EC50 does the source give for CCOc1cc(-c2ccc(C3CCc4ccc([C@H](C5CC5)[C@H](C)C(=O)O)cc4O3)cc2CN(CC)CC)c(F)cn1 (single isomer, unassigned) [Example 172, (2S, 3R)-3-cyclopropyl-3-((S or R)-2-(3-((diethylamino)methyl)-4-(2-ethoxy-5-fluoropyridin-4-yl)phenyl)chroman-7-yl)-2-methylpropanoic acid] here?
**A.** The EC50 was 2.3 nM.

**Q.** COc1cc(-c2ccc([C@@H]3CCc4ccc([C@H](C5CC5)[C@H](C)C(=O)O)cc4O3)cc2CN(C(C)C)C(C)C)c(F)cn1 [Example 225, Sodium (2S,3R)-3-cyclopropyl-3-((S)-2-(3-((diisopropylamino)methyl)-4-(5-fluoro-2-methoxypyridin-4-yl)phenyl)chroman-7-yl)-2-methylpropanoate] was tested. Which EC50 did it give?
**A.** The EC50 was 0.07 nM.

**Q.** COCC(c1cc([C@H]2CCc3ccc([C@H](C4CC4)[C@H](C)C(=O)O)cc3O2)ccc1-c1ccnc(OC)c1)N1CCCC1 (mixture of isomers) [Example 179, (2S, 3R)-3-cyclopropyl-3-((2R)-2-(3-(2-methoxy-1-(pyrrolidin-1-yl)ethyl)-4-(2-methoxypyridin-4-yl)phenyl)chroman-7-yl)-2-methylpropanoic acid] was tested. Which EC50 did it give?
**A.** Its EC50 is 17 nM.

**Q.** How did the EC50 turn out when COc1cc(-c2ccc(C3CCc4ccc([C@H](C5CC5)[C@H](C)C(=O)O)cc4O3)c(CN3CCCC[C@@H]3C)c2)c(F)cn1 (stereo partly drawn) [Example 131] was run?
**A.** The EC50 was 0.09 nM.

**Q.** How did the EC50 turn out when COc1cc(-c2ccc(C3CCc4ccc([C@H](C5CC5)[C@H](C)C(=O)O)cc4O3)cc2CNC(C)C)ccn1 (stereo partly drawn) [Example 243] was run?
**A.** The EC50 was 810 nM.

**Q.** Which EC50 does the source give for CCN(CC)Cc1cc(C2CCc3ccc([C@H](C4CC4)[C@H](C)C(=O)O)cc3O2)ncc1-c1cc(OC)ncc1F (single isomer, unassigned) [Example 86] here?
**A.** Its EC50 is 1.4 nM.

**Q.** Which EC50 does the source give for COc1cc(-c2ccc(C3CCc4ccc([C@H](C5CC5)[C@H](C)C(=O)O)c(F)c4O3)cc2CN2CCCCC2)c(F)cn1 (single isomer, unassigned) [Example 201] here?
**A.** Its EC50 is 4.4 nM.

**Q.** Which EC50 does the source give for CCOc1cc(-c2ccc(C3CCc4ccc([C@H](C5CC5)[C@H](C)C(=O)O)cc4O3)cc2CN2CCCC2)c(Cl)cn1 (single isomer, unassigned) [Example 218] here?
**A.** Its EC50 is 10 nM.

**Q.** How did the EC50 turn out when CCN(Cc1cc(C2CCc3ccc([C@H](C4CC4)[C@H](C)C(=O)O)cc3O2)ccc1-c1cc(OC)ncc1F)C(C)(C)C (stereo partly drawn) [Example 228] was run?
**A.** Its EC50 is 0.12 nM.

**Q.** For COc1cc(-c2ccc(C3CCc4ccc([C@H](C5CC5)[C@H](C)C(=O)O)cc4O3)c(CN3[C@H](C)CC[C@H]3C)c2)c(F)cn1 (stereo partly drawn) [Example 127], which EC50 is on record?
**A.** Its EC50 is 0.2 nM.

**Q.** With COc1cc(-c2ccc(C3CCc4ccc([C@H](C5CC5)[C@H](C)C(=O)O)c(F)c4O3)cc2CN2CCCCC23CC3)c(F)cn1 (single isomer, unassigned) [Example 202] as the molecule, how does the EC50 read?
**A.** The EC50 was 0.16 nM.

**Q.** With COc1cc(-c2ccc(C3CCc4ccc([C@H](C5CC5)[C@H](C)C(=O)O)cc4O3)c(CN3[C@H](C)CC[C@@H]3C)c2)ccn1 (single isomer, unassigned) [Example 122a] as the molecule, how does the EC50 read?
**A.** Its EC50 is 3.3 nM.

**Q.** For COc1cc(-c2ccc(C3CCc4ccc([C@H](C5CC5)[C@H](C)C(=O)O)cc4O3)cc2C(C)N2CCCC2)ccn1 (stereo partly drawn) [Example 249], which EC50 is on record?
**A.** The EC50 was 14.2 nM.

**Q.** With COc1cc(-c2ccc(C3CCc4ccc([C@H](C5CC5)[C@H](C)C(=O)O)cc4O3)c(CN3CCCCC3(C)C)c2)c(F)cn1 (mixture of isomers) [Example 128] as the molecule, how does the EC50 read?
**A.** Its EC50 is 0.16 nM.

**Q.** With COc1cc(-c2ccc(C3CCc4ccc([C@H](C5CC5)[C@H](C)C(=O)O)cc4O3)cc2CN2CCC[C@H]2C)ccn1 (stereo partly drawn) [Example 280] as the molecule, how does the EC50 read?
**A.** Its EC50 is 16 nM.

**Q.** COc1cc(-c2ccc(C3CCc4ccc([C@H](C5CC5)[C@H](C)C(=O)O)cc4O3)c(CN3CCCCC3(C)C)c2)ccn1 (mixture of isomers) [Example 117] was tested. Which EC50 did it give?
**A.** The EC50 was 0.6 nM.

**Q.** Which EC50 does the source give for COc1cc(-c2ccc(C3CCc4ccc([C@H](C5CC5)[C@H](C)C(=O)O)cc4O3)cc2CN2[C@H]3CC[C@@H]2CC3)ccn1 (stereo partly drawn) [Example 289] here?
**A.** The EC50 was 72 nM.

**Q.** For CCN(Cc1cc(C2CCc3ccc([C@H](C4CC4)[C@H](C)C(=O)O)cc3O2)ccc1-c1cc(OC)ncc1F)C(C)C (stereo partly drawn) [Example 255], which EC50 is on record?
**A.** The EC50 was 0.3 nM.

**Q.** Which EC50 does the source give for COc1cc(-c2ccc(C3CCc4ccc([C@H](C5CC5)[C@H](C)C(=O)O)cc4O3)cc2C(CN2CCCC2)OC)ccn1 (single isomer, unassigned) [Example 178] here?
**A.** Its EC50 is 136 nM.

**Q.** With COc1cc(-c2ccc(C3CCc4ccc([C@H](C5CC5)[C@H](C)C(=O)O)cc4O3)c(CN(C)C(C)(C)C)c2)c(F)cn1 (single isomer, unassigned) [Example 125b] as the molecule, how does the EC50 read?
**A.** The EC50 was 12 nM.

**Q.** With CCOc1cc(-c2ccc(C3CCc4ccc([C@H](C5CC5)[C@H](C)C(=O)O)cc4O3)cc2CN2CCCC2)c(F)cn1 (single isomer, unassigned) [Example 174] as the molecule, how does the EC50 read?
**A.** Its EC50 is 27 nM.

**Q.** How did the EC50 turn out when CCN(C(C)C)C(C)c1cc(C2CCc3ccc([C@H](C4CC4)[C@H](C)C(=O)O)cc3O2)ccc1-c1ccnc(OC)c1 (single isomer, unassigned) [Example 247] was run?
**A.** The EC50 was 1.3 nM.

**Q.** CCN(Cc1cc(-c2cc(OC)ncc2F)ccc1C1CCc2ccc([C@H](C3CC3)[C@H](C)C(=O)O)cc2O1)C(C)C (single isomer, unassigned) [Example 124a] was tested. Which EC50 did it give?
**A.** The EC50 was 0.09 nM.

**Q.** How did the EC50 turn out when COc1cc(-c2ccc(C3CCc4ccc([C@H](C5CC5)[C@H](C)C(=O)O)cc4O3)c(CN3CCCC[C@@H]3C)c2)ccn1 (stereo partly drawn) [Example 121] was run?
**A.** The EC50 was 0.4 nM.

**Q.** Which EC50 does the source give for COc1cc(-c2ccc(C3CCc4ccc([C@H](C5CC5)[C@H](C)C(=O)O)cc4O3)c(CN3CCC[C@H]3C)c2)ccn1 (single isomer, unassigned) [Example 119a] here?
**A.** The EC50 was 308 nM.

**Q.** COc1cc(-c2ccc(C3CCc4ccc([C@H](C5CCC5)[C@H](C)C(=O)O)cc4O3)cc2CN2[C@H](C)CC[C@H]2C)c(F)cn1 (single isomer, unassigned) [Example 96] was tested. Which EC50 did it give?
**A.** Its EC50 is 0.06 nM.

**Q.** CCN(C)Cc1cc(C2CCc3ccc([C@H](C4CC4)[C@H](C)C(=O)O)cc3O2)ccc1-c1cc(OC)ncc1F (stereo partly drawn) [Example 253] was tested. Which EC50 did it give?
**A.** The EC50 was 0.9 nM.

**Q.** Which EC50 does the source give for COc1cc(-c2ccc(C3CCc4ccc([C@H](C5CC5)[C@H](C)C(=O)O)cc4O3)cc2CN2C3CCCC2CC3)ccn1 (stereo partly drawn) [Example 290] here?
**A.** The EC50 was 22 nM.

**Q.** How did the EC50 turn out when COc1cc(-c2ccc(C3CCc4ccc([C@H](C5CC5)[C@H](C)C(=O)O)cc4O3)c(CN(C(C)C)C(C)C)c2)ccn1 (mixture of isomers) [Example 115] was run?
**A.** The EC50 was 0.1 nM.
